Consider three compounds from patent publication US20080119451A1, “Novel Benzamide Derivatives” (ASTRAZENECA AB, priority 2005, published 2008).

Test [1] addresses T1, recombinant human HDAC1 (Homo sapiens, UniProt Q13547).
T1 construct: FLAG (C); made in house; host or cells: Hi5 insect cells
The test is described as follows: In vitro enzyme assay of recombinant HDAC1 (Fluor de Lys deacetylase assay). The format is biochemical. Conditions: recombinant human HDAC1 produced in Hi5 insect cells; acetylated histone H4 peptide substrate; read-out: Test (a) IC50. The protocol: (a) In Vitro Enzyme Assay of Recombinant HDAC1
HDAC inhibitors were screened against recombinant human HDAC1 produced in Hi5 insect cells. The enzyme was cloned with a FLAG tag at the C-terminal of the gene and affinity purified using Anti-FLAG M2 agarose from SIGMA (A2220).
The deacetylase assays were carried out in a 50 μl reaction. […] The reaction was stopped by addition of an equal volume (50 μl) Fluor de Lys developer (Biomol) containing Trichostatin A at 2 μM. […] IC50 values for HDAC enzyme inhibitors were determined by performing dose response curves with individual compounds and determining the concentration of inhibitor producing fifty percent decrease in the maximal signal (diluent control).

Test [2] has as its system HCT116 cells. Nature of the test: In vitro assay of inhibition of proliferation in whole cells (Promega MTS assay). The format is cell-based. The following applies: Homo sapiens, HCT-116, 72 hours treatment, read-out: Test (b) IC50. The protocol: (b) In Vitro Assay of Inhibition of Proliferation in Whole Cells
Inhibition of proliferation in whole cells was assayed using the Promega cell titer 96 aqueous proliferation assay (Promega #G5421). HCT116 cells were seeded in 96 well plates at 1×10^3 cells/well, and allowed to adhere overnight. They were treated with inhibitors for 72 hours. 20 μl of the tetrazolium dye MTS was added to each well and the plates were reincubated for 3 hours. Absorbance was then measured on a 96 well plate reader at […]. The IC50 values for HDAC inhibitors were determined by performing dose response curves with individual compounds and determining the concentration of inhibitor producing fifty percent decrease in maximal signal (diluent control).

T1 sequence (Q13547 whole entry): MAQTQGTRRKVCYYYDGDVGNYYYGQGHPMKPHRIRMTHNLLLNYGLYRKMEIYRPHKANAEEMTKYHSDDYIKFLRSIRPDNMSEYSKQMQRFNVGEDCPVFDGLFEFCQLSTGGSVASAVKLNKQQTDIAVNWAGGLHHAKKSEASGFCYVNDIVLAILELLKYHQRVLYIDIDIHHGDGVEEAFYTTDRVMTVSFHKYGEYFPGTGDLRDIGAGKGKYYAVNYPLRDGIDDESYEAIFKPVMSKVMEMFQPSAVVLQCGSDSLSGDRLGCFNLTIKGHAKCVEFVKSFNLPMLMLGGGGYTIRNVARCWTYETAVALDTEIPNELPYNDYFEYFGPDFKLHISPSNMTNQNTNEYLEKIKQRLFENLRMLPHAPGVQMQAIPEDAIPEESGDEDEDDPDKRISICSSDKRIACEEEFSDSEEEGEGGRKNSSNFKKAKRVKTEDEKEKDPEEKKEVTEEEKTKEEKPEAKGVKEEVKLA

Usually IC50 stands for the midpoint of a concentration-inhibition curve. Regarding `Nc1ccccc1NC(=O)c1ccc(-c2ccccn2)cc1` [Comparator, N-(2-aminophenyl)-4-pyridin-2-ylbenzamide, reference compound], the IC50 in test [1] was found to be 89 nM; in test [2], 2330 nM.
As for `Cc1cc(CN2CCN(C(C)C)CC2)cnc1-c1ccc(C(=O)Nc2ccccc2N)cc1` [Example 2, N-(2-aminophenyl)-4-{5-[(4-isopropylpiperazin-1-yl)methyl]-3-methylpyridin-2-yl}benzamide], the concentration for half-maximal inhibition (IC50) worked out at 19 nM in test [1] and 238 nM in test [2].
For the compound `Cc1cc(CN2CCC2)cnc1-c1ccc(C(=O)Nc2ccccc2N)cc1` [Example 4, N-(2-aminophenyl)-4-[5-(azetidin-1-ylmethyl)-3-methylpyridin-2-yl]benzamide], the IC50 in test [1] was 21 nM; in test [2] it was 310 nM.
